Laboratory results as given in patent publication US20060069132A1, “Azolecarboxamide herbicides” (priority 2004, published 2006).

Assays:
giant foxtail = assay: Test C pre-/postemergence herbicide test; format: in vivo, Setaria faberi; settings: preemergence
Outline: (§1)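 Preemergence: seeds planted and treated with compound in non-phytotoxic solvent with surfactant; postemergence: plants at 2 to 18 cm (1- to 4-leaf stage) sprayed likewise. Kept in greenhouse 12 to 14 days, then visually rated against controls, 0 (no effect) to 100 (complete control).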

kochia = assay: Test C pre-/postemergence herbicide test; format: in vivo, Kochia scoparia; settings: preemergence
Outline: as §1

rice = assay: Test C flooded paddy test; format: in vivo, Oryza sativa; settings: for Plant response rating, Rice: 500 g ai/ha, visual rating after 12 to 14 days
Outline: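 Injury scored visually against controls on a 0 (no effect) to 100 (complete control) scale, 12 to 14 days after treatment in greenhouse. Flooded paddy plants treated at 2-leaf stage; postemergence plants at 1- to 4-leaf stage, 2 to 18 cm tall.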

[1] = system: smallflower umbrella sedge; assay: Test C flooded paddy test; format: in vivo, Cyperus difformis; settings: for Plant response rating, Sedge, Umbrella: 500 g ai/ha, visual rating after 12 to 14 days
johnsongrass = assay: Test C pre-/postemergence herbicide test; format: in vivo, Sorghum halepense; settings: preemergence; for Plant response rating (0 = no effect, 100 = complete control), Johnsongrass: 125 g ai/ha
Outline: as §1

common ragweed = assay: Test C pre-/postemergence herbicide test; format: in vivo, Ambrosia elatior; parameters: key to Plant response rating, Ragweed: 0 = no effect, 100 = complete control; settings: preemergence; for Plant response rating (0 = no effect, 100 = complete control), Ragweed: 125 g ai/ha
Outline: as §1

corn = assay: Test C pre-/postemergence herbicide test; format: in vivo, Zea mays; settings: preemergence
Outline: as §1

[2] = 125 g ai/ha, scale 0 (no effect) to 100 (complete control), visual, 12 to 14 days
[3] = 500 g ai/ha, scale 0 to 100 (0 no effect, 100 complete control), visual, 12 to 14 days
[4] = 125 g ai/ha, scale 0 to 100 (0 no effect, 100 complete control)
[5] = 250 g ai/ha, scale of 0 to 100, 0 is no effect, 100 is complete control
[6] = scale 0 to 100 (0 no effect, 100 complete control)

| SMILES | Plant response rating, Foxtail, Giant (giant foxtail; 62 g ai/ha, scale 0 to 100) | Plant response rating, Foxtail, Giant (giant foxtail; 250 g ai/ha, scale 0-100) | Plant response rating, Foxtail, Giant (giant foxtail; [3]) | Plant response rating, Kochia (kochia; 62 g ai/ha, scale 0 to 100) | Plant response rating, Kochia (kochia; 250 g ai/ha, scale 0-100) | Plant response rating, Kochia (kochia; [3]) | Rice plant response rating (rice; 62 g ai/ha, scale 0 to 100) | Rice plant response rating (rice; [4]) | Rice plant response rating (rice; [5]) | Plant response rating, Rice (rice; [6]) | Sedge, Umbrella plant response rating ([1]; 62 g ai/ha, scale 0 to 100) | Sedge, Umbrella plant response rating [1, 4] | Sedge, Umbrella plant response rating [1, 5] | Plant response rating, Sedge, Umbrella [1, 6] | Plant response rating, Johnsongrass (johnsongrass; 62 g ai/ha, scale 0 to 100) | Plant response rating, Johnsongrass (johnsongrass; 250 g ai/ha, scale 0-100) | Plant response rating, Johnsongrass (johnsongrass; [3]) | Plant response rating, Ragweed (common ragweed; 62 g ai/ha, scale 0 to 100) | Plant response rating, Ragweed (common ragweed; [3]) | Plant response rating, Corn (corn; 62 g ai/ha, scale 0 to 100) | also measured |
| --- | --- | --- | --- | --- | --- | --- | --- | --- | --- | --- | --- | --- | --- | --- | --- | --- | --- | --- | --- | --- | --- |
| CCn1nc(C2(C)CC2)cc1C(=O)Nc1cc(C(=O)N2CC=CC2)ccc1F [Compound 301] | 35 | 95 | 100 | 100 | 100 | 100 | 50 | 55 | 75 | 85 | 80 | 90 | 90 | 95 | 30 | 85 | 95 | 10 | 70 | 10 | Plant response rating, Foxtail, Giant (giant foxtail; [2]): 60; Plant response rating, Kochia (kochia; [2]): 100; Plant response rating, Ragweed (common ragweed; 250 g ai/ha, scale 0-100): 65; Plant response rating, Corn (corn; [2]): 10; Plant response rating, Corn (corn; 250 g ai/ha, scale 0-100): 40; Plant response rating, Corn (corn; [3]): 45 |
| C=CCNC(=O)c1cccc(NC(=O)c2nn(C(C)C)nc2CC)c1 [Compound 382] | 60 | 100 | 100 | 0 | 95 | 100 | 20 | 55 | 70 | 75 | 75 | 80 | 85 | 90 | 70 | 100 | 100 | 20 | 100 | 0 | Plant response rating (0 = no effect, 100 = complete control), Foxtail, Giant (giant foxtail; 125 g ai/ha): 90; Plant response rating (0 = no effect, 100 = complete control), Kochia (kochia; 125 g ai/ha): 20; Plant response rating (0 = no effect, 100 = complete control), Johnsongrass (johnsongrass): 95; Plant response rating (0 = no effect, 100 = complete control), Ragweed (common ragweed): 65; Plant response rating, Ragweed (common ragweed; 250 g ai/ha, scale 0-100): 90; Plant response rating (0 = no effect, 100 = complete control), Corn (corn; 125 g ai/ha): 50; Plant response rating, Corn (corn; 250 g ai/ha, scale 0-100): 55; Plant response rating, Corn (corn; [3]): 60 |
| CCc1nn(C(C)C)nc1C(=O)Nc1cccc(C(=O)N2CCCCC2)c1 [Compound 385] | 40 | 95 | 100 | 0 | 85 | 100 | 40 | 50 | 65 | 80 | 75 | 75 | 80 | 85 | 80 | 100 | 100 | 0 | 95 | 0 | Plant response rating (0 = no effect, 100 = complete control), Foxtail, Giant (giant foxtail; 125 g ai/ha): 80; Plant response rating (0 = no effect, 100 = complete control), Kochia (kochia; 125 g ai/ha): 70; Plant response rating (0 = no effect, 100 = complete control), Johnsongrass (johnsongrass): 95; Plant response rating (0 = no effect, 100 = complete control), Ragweed (common ragweed): 20; Plant response rating, Ragweed (common ragweed; 250 g ai/ha, scale 0-100): 90 |
| CCc1nn(C(C)C)nc1C(=O)Nc1cccc(C(=O)N(C)CC)c1 [Compound 386] | 80 | 90 | 100 | 30 | 100 | 100 | 25 | 65 | 70 | 75 | 65 | 75 | 80 | 80 | 85 | 100 | 100 | 5 | 100 | 10 | Plant response rating (0 = no effect, 100 = complete control), Foxtail, Giant (giant foxtail; 125 g ai/ha): 90; Plant response rating (0 = no effect, 100 = complete control), Kochia (kochia; 125 g ai/ha): 100; Plant response rating (0 = no effect, 100 = complete control), Johnsongrass (johnsongrass): 100; Plant response rating (0 = no effect, 100 = complete control), Ragweed (common ragweed): 98; Plant response rating, Ragweed (common ragweed; 250 g ai/ha, scale 0-100): 100; Plant response rating (0 = no effect, 100 = complete control), Corn (corn; 125 g ai/ha): 60; Plant response rating, Corn (corn; 250 g ai/ha, scale 0-100): 80; Plant response rating, Corn (corn; [3]): 85 |
| CCc1nn(C(C)C)nc1C(=O)Nc1cccc(C(=S)N(C)C)c1 [Compound 409] | 30 | 95 | 95 |  | 85 | 95 | 20 | 40 | 50 | 60 | 70 | 75 | 85 | 90 | 35 | 95 | 95 | 45 | 95 | 0 | Plant response rating (0 = no effect, 100 = complete control), Foxtail, Giant (giant foxtail; 125 g ai/ha): 85; Plant response rating (0 = no effect, 100 = complete control), Kochia (kochia; 125 g ai/ha): 70; Plant response rating (0 = no effect, 100 = complete control), Johnsongrass (johnsongrass): 80; Plant response rating (0 = no effect, 100 = complete control), Ragweed (common ragweed): 85; Plant response rating (0 = no effect, 100 = complete control), Corn (corn; 125 g ai/ha): 5; Plant response rating, Corn (corn; 250 g ai/ha, scale 0-100): 75; Plant response rating, Corn (corn; [3]): 80 |
